Results published in the supplement of paper PMC10307832.

How the values were obtained:
Test in all cases: relative viability (nuclei count vs DMSO), 5 days (fraction); higher = more cells survive
[1] = compound: CCCS(=O)(=O)Nc1ccc(F)c(C(=O)c2c[nH]c3ncc(-c4ccc(Cl)cc4)cc23)c1F [Vemurafenib] + CS(=O)(=O)N1CCN(Cc2cc3nc(-c4cccc5[nH]ncc45)nc(N4CCOCC4)c3s2)CC1 [Pictilisib] (partner 1 µM)
Method in brief: (§1)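 Values are medians from duplicate plates. Each reflects relative viability, defined as the nuclei count of treated wells over that of vehicle wells. Lung cancer cell lines in 1536-well plates were pin-tool dosed one day after seeding with one drug alone or with a fixed anchor-drug dose plus five library-drug doses (not always all listed) in √10 steps, then fixed, stained and imaged at 4× after 5 days.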

[2] = compound: CCCS(=O)(=O)Nc1ccc(F)c(C(=O)c2c[nH]c3ncc(-c4ccc(Cl)cc4)cc23)c1F [Vemurafenib] + Nc1nc2[nH]cc(CCc3ccc(C(=O)N[C@@H](CCC(=O)O)C(=O)O)cc3)c2c(=O)[nH]1 [Pemetrexed] (partner 0.2 µM)
Method in brief: as §1

[3] = compound: COc1cccc2cc(-c3nc([C@H]4CC[C@H](C(=O)O)CC4)n4ncnc(N)c34)[nH]c12 [OSI-027] + CCNC(=O)c1noc(-c2cc(C(C)C)c(O)cc2O)c1-c1ccc(CN2CCOCC2)cc1 [Luminespib] (partner 0.01 µM)
Method in brief: as §1

[4] = compound: Cc1nc(NC(=O)N2CCC[C@H]2C(N)=O)sc1-c1ccnc(C(C)(C)C(F)(F)F)c1 [Alpelisib] + COc1cc2c(Oc3ccc(NC(=O)C4(C(=O)Nc5ccc(F)cc5)CC4)cc3F)ccnc2cc1OCCCN1CCOCC1 [Foretinib] (partner 0.25 µM)
Method in brief: as §1

| Cell Line | relative viability ([1]; first compound 0.03162 µM) | relative viability ([1]; first compound 0.1 µM) | relative viability ([1]; first compound 0.3162 µM) | relative viability ([1]; first compound 1 µM) | relative viability ([2]; first compound 0.03162 µM) | relative viability ([2]; first compound 0.1 µM) | relative viability ([2]; first compound 0.3162 µM) | relative viability ([2]; first compound 1 µM) | relative viability ([3]; first compound 0.01 µM) | relative viability ([3]; first compound 0.03162 µM) | relative viability ([3]; first compound 0.1 µM) | relative viability ([3]; first compound 0.3162 µM) | relative viability ([3]; first compound 1 µM) | relative viability ([4]; first compound 0.04 µM) | relative viability ([4]; first compound 0.1265 µM) | relative viability ([4]; first compound 0.4 µM) | relative viability ([4]; first compound 1.265 µM) | relative viability ([4]; first compound 4 µM) |
| --- | --- | --- | --- | --- | --- | --- | --- | --- | --- | --- | --- | --- | --- | --- | --- | --- | --- | --- |
| NCI-H1915 | 0.751 | 0.903 | 0.908 | 0.85 | 0.493 | 0.494 | 0.434 | 0.454 | 1.04 | 0.972 | 0.862 | 0.687 | 0.562 | 1.12 | 1.1 | 1.15 | 1.03 | 1.09 |
| LC-2-ad | 0.436 | 0.396 | 0.635 | 0.432 | 0.252 | 0.254 | 0.249 | 0.276 | 1.05 | 1.1 | 0.862 | 0.874 | 0.659 | 0.863 | 0.908 | 0.966 | 0.601 | 0.576 |
| NCI-H2126 | 0.494 | 0.4 | 0.572 | 0.471 | 0.627 | 0.662 | 0.684 | 0.777 | 0.93 | 1.01 | 0.85 | 0.575 | 0.547 | 1.05 | 1.01 | 1.04 | 1.07 | 0.904 |
| HOP-62 | 0.739 | 0.589 | 0.517 | 0.458 | 0.368 | 0.318 | 0.208 | 0.354 | 0.954 | 0.904 | 0.957 | 0.926 | 0.363 | 1.08 | 1.15 | 1.23 | 1.02 | 0.978 |
| LCLC-103H | 0.585 | 0.506 | 0.584 | 0.59 | 0.495 | 0.515 | 0.377 | 0.456 | 1.03 | 0.994 | 0.908 | 0.85 | 0.504 | 0.67 | 0.758 | 0.652 | 0.567 | 0.471 |
| HARA | 0.41 | – | 0.459 | 0.486 | 0.24 | 0.234 | 0.2 | 0.246 | 0.683 | 0.839 | 0.706 | 0.449 | 0.22 | 0.914 | 0.888 | 0.879 | 0.682 | 0.533 |
| NCI-H2087 | 0.728 | 0.816 | – | 0.802 | 0.646 | 0.63 | 0.544 | 0.678 | 0.143 | 0.166 | 0.176 | 0.133 | 0.158 | 0.903 | 1.07 | 1.31 | 0.814 | 0.614 |
| NCI-H520 | 0.283 | 0.369 | 0.372 | 0.268 | 0.689 | 0.643 | 0.532 | 0.608 | 0.258 | 0.37 | 0.211 | 0.168 | 0.202 | 0.682 | 0.928 | 0.838 | 0.605 | 0.582 |
| COR-L 105 | 0.467 | – | 0.406 | 0.368 | 0.939 | – | 1.2 | 1.05 | 0.58 | 0.707 | 0.862 | 0.526 | 0.472 | 1.08 | 1.26 | 1.02 | 1 | 1.08 |
| NCI-H1437 | 0.445 | 0.376 | 0.512 | 0.333 | 0.327 | 0.294 | 0.312 | 0.32 | 1.08 | 1.12 | 1.16 | 1.14 | 0.806 | 1.23 | 1.33 | 1.33 | 1.27 | 1.31 |
